{"source": "paper PMC10564737", "about": "“Structure-based design of a phosphotyrosine-masked covalent ligand targeting the E3 ligase SOCS2” (Nature Communications, 2023)", "key": {"SOCS2 (SBC2)": {"target": "T1, SOCS2 (SBC2) (Homo sapiens, UniProt O14508)", "T1 construct": "SOCS2 (amino acids 32–198); His6 (N, cleaved yes); made in house; host or cells: E. coli BL21(DE3)", "T1 sequence (O14508 32-198)": "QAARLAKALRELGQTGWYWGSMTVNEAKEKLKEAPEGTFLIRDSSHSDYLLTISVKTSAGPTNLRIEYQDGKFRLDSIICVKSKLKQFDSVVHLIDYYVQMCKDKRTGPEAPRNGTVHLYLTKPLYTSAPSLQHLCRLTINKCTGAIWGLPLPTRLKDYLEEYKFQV", "T1 sequence (Q15369 17-112, further chain)": "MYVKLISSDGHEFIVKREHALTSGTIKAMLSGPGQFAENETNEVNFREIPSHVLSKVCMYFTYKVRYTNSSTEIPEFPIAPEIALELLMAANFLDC", "T1 sequence (Q15370 1-104, further chain)": "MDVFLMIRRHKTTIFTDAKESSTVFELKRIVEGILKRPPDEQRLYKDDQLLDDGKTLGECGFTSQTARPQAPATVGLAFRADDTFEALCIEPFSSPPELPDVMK", "test": "Intact ESI-MS of recombinant protein, covalent modification", "format": "biochemical", "conditions": "SOCS2 WT + MN551 (1:1, 40 µM)"}, "[1]": {"target": "T2, HiBiT-SOCS2 fusion in HeLa cells (Homo sapiens, UniProt O14508)", "T2 construct": "encoding SOCS2 (32–198) in pBiT3.1-N expression vector; expressed in transfected cells; host or cells: HeLa", "T2 sequence (O14508 32-198)": "as the sequence (O14508 32-198) above", "T2 sequence (Q15370 whole entry, further chain, the tested form may be a part)": "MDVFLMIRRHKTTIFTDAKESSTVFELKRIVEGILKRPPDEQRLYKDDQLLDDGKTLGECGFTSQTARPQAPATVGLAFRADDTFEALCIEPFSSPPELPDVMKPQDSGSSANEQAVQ", "T2 sequence (Q15369 whole entry, further chain, the tested form may be a part)": "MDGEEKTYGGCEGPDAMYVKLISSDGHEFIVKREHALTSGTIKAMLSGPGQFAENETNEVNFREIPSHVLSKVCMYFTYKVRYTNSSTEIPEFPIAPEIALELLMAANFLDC", "test": "Split-NanoLuc CETSA, live-cell mode", "format": "cell-based", "design": "Produrg CETSA screening, raw signal: reference not given here", "conditions": "for Produrg CETSA screening, raw signal: 50uM 20hrs", "outline": "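HeLa cells transiently expressing N-terminal HiBiT-SOCS2 (32–198) were treated live with 50 μM prodrug for 20 h at 37 °C (1% DMSO), then heated 3 min across 40–72 °C. HiBiT lytic luminescence was normalized to the 40 °C signal, and apparent Tagg was fitted by Boltzmann sigmoid.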"}, "SBC2": {"target": "T3, SBC2 (Homo sapiens, UniProt O14508)", "T3 construct": "SOCS2 (amino acids 32–198); His6 (N, cleaved yes); made in house; host or cells: E. coli BL21(DE3)", "T3 sequence (O14508 32-198)": "as the sequence (O14508 32-198) above", "T3 sequence (Q15370 1-104 partner limits assumed)": "as the sequence (Q15370 1-104, further chain) above", "T3 sequence (Q15369 17-112 partner limits assumed)": "as the sequence (Q15369 17-112, further chain) above", "test": "Differential scanning fluorimetry (DSF)", "format": "binding", "conditions": "5 µM SBC2 + 100 µM MN551", "description": "DSF experiments were performed on a Biorad CFX96 RT-PCR machine. […] of SBC2 were incubated with […] MN551 (2 % DMSO) or DMSO control in 50 mM Tris, pH 8.0, 50 mM NaCl and 6.6 × SYPRO Orange. The temperature was ramped up in 1 °C steps between 25 and 95 °C with 30 s incubation at each step. Melting curves were analyzed by determining the minimum of the first derivative using the Biorad CFX Manager software."}}, "note": "Several values for one entry are separate records, joined by “and”; a condition that tells them apart may be missing. Equal entries are not always repeated.", "data": [{"smiles": "O=C(CCl)Nc1cccc(CNC(=O)[C@H](Cc2ccc(OP(=O)(O)O)cc2)NC(=O)Cc2ccc(F)cc2)c1", "note": "[MN551]", "values": [{"measurement": "% modified", "setting": "SOCS2 (SBC2); t = 0 min", "value": 0.0, "unit": "%"}, {"measurement": "% modified", "setting": "SOCS2 (SBC2); t = 5 min", "value": 12.6, "unit": "%"}, {"measurement": "% modified", "setting": "SOCS2 (SBC2); t = 10 min", "value": 18.9, "unit": "%"}, {"measurement": "% modified", "setting": "SOCS2 (SBC2); t = 20 min", "value": 41.4, "unit": "%"}, {"measurement": "% modified", "setting": "SOCS2 (SBC2); t = 40 min", "value": 73.7, "unit": "%"}, {"measurement": "% modified", "setting": "SOCS2 (SBC2); t = 60 min", "value": 88.0, "unit": "%"}, {"measurement": "% modified", "setting": "SOCS2 (SBC2); t = 90 min", "value": 100.0, "unit": "%"}, {"measurement": "% modified", "setting": "SOCS2 (SBC2); t = 120 min", "value": 100.0, "unit": "%"}, {"measurement": "Produrg CETSA screening, raw signal", "setting": "[1]; n=1, temperature point 4 of 16, temperature not given", "value": "51906 and 74271 and 83631"}, {"measurement": "Produrg CETSA screening, raw signal", "setting": "[1]; n=1, temperature point 5 of 16, temperature not given", "value": "62246 and 51464 and 85761"}, {"measurement": "Produrg CETSA screening, raw signal", "setting": "[1]; n=1, temperature point 6 of 16, temperature not given", "value": "108788 and 87275 and 106856"}, {"measurement": "Produrg CETSA screening, raw signal", "setting": "[1]; n=1, temperature point 7 of 16, temperature not given", "value": "132974 and 140531 and 140435"}, {"measurement": "Produrg CETSA screening, raw signal", "setting": "[1]; n=1, temperature point 8 of 16, temperature not given", "value": "134181 and 150079 and 139460"}, {"measurement": "Produrg CETSA screening, raw signal", "setting": "[1]; n=1, temperature point 9 of 16, temperature not given", "value": "189390 and 210146 and 247725"}, {"measurement": "Produrg CETSA screening, raw signal", "setting": "[1]; n=1, temperature point 10 of 16, temperature not given", "value": "222849 and 214562 and 260657"}, {"measurement": "Produrg CETSA screening, raw signal", "setting": "[1]; n=1, temperature point 11 of 16, temperature not given", "value": "306316 and 347377 and 363834"}, {"measurement": "Produrg CETSA screening, raw signal", "setting": "[1]; n=1, temperature point 12 of 16, temperature not given", "value": "497790 and 541910 and 544913"}, {"measurement": "Produrg CETSA screening, raw signal", "setting": "[1]; n=1, temperature point 13 of 16, temperature not given", "value": "482302 and 510836 and 519812"}, {"measurement": "Produrg CETSA screening, raw signal", "setting": "[1]; n=1, temperature point 14 of 16, temperature not given", "value": "563762 and 585700 and 590798"}, {"measurement": "Produrg CETSA screening, raw signal", "setting": "[1]; n=1, temperature point 15 of 16, temperature not given", "value": "665581 and 663053 and 701220"}, {"measurement": "Produrg CETSA screening, raw signal", "setting": "[1]; n=1, temperature point 16 of 16, temperature not given", "value": "691060 and 708174 and 757604"}, {"measurement": "Produrg CETSA screening, raw signal", "setting": "[1]; n=2, temperature point 1 of 16, temperature not given", "value": "29701 and 32684 and 58114"}, {"measurement": "Produrg CETSA screening, raw signal", "setting": "[1]; n=2, temperature point 2 of 16, temperature not given", "value": "46564 and 62785 and 77591"}, {"measurement": "Produrg CETSA screening, raw signal", "setting": "[1]; n=2, temperature point 3 of 16, temperature not given", "value": "123506 and 129184 and 115193"}, {"measurement": "Produrg CETSA screening, raw signal", "setting": "[1]; n=2, temperature point 5 of 16, temperature not given", "value": "47087 and 55743 and 78578"}, {"measurement": "Produrg CETSA screening, raw signal", "setting": "[1]; n=2, temperature point 6 of 16, temperature not given", "value": "98105 and 105595 and 117544"}, {"measurement": "Produrg CETSA screening, raw signal", "setting": "[1]; n=2, temperature point 7 of 16, temperature not given", "value": "144950 and 158240 and 171572"}, {"measurement": "Produrg CETSA screening, raw signal", "setting": "[1]; n=2, temperature point 8 of 16, temperature not given", "value": "135100 and 139766 and 168368"}, {"measurement": "Produrg CETSA screening, raw signal", "setting": "[1]; n=2, temperature point 9 of 16, temperature not given", "value": "229091 and 227474 and 261588"}, {"measurement": "Produrg CETSA screening, raw signal", "setting": "[1]; n=2, temperature point 10 of 16, temperature not given", "value": "267450 and 271378 and 303431"}, {"measurement": "Produrg CETSA screening, raw signal", "setting": "[1]; n=2, temperature point 11 of 16, temperature not given", "value": "327561 and 343740 and 362839"}, {"measurement": "Produrg CETSA screening, raw signal", "setting": "[1]; n=2, temperature point 12 of 16, temperature not given", "value": "483965 and 500271 and 541590"}, {"measurement": "Produrg CETSA screening, raw signal", "setting": "[1]; n=2, temperature point 13 of 16, temperature not given", "value": "506853 and 509845 and 531489"}, {"measurement": "Produrg CETSA screening, raw signal", "setting": "[1]; n=2, temperature point 14 of 16, temperature not given", "value": "591756 and 578279 and 588133"}, {"measurement": "Produrg CETSA screening, raw signal", "setting": "[1]; n=2, temperature point 15 of 16, temperature not given", "value": "597206 and 580381 and 582472"}, {"measurement": "Produrg CETSA screening, raw signal", "setting": "[1]; n=2, temperature point 16 of 16, temperature not given", "value": "620665 and 663583 and 665832"}, {"measurement": "Produrg CETSA screening, raw signal", "setting": "[1]; n=3, Temp, 0C 59.2", "value": 55622}, {"measurement": "Produrg CETSA screening, raw signal", "setting": "[1]; n=3, Temp, 0C 62.3", "value": "33828 and 45066 and 46746"}, {"measurement": "Produrg CETSA screening, raw signal", "setting": "[1]; n=3, Temp, 0C 66.1", "value": "15770 and 17572 and 22773"}, {"measurement": "Produrg CETSA screening, raw signal", "setting": "[1]; n=3, Temp, 0C 69.3", "value": "14086 and 13763 and 18636"}, {"measurement": "Produrg CETSA screening, raw signal", "setting": "[1]; n=3, Temp, 0C 71.1", "value": "13296 and 19284 and 20568"}, {"measurement": "Produrg CETSA screening, raw signal", "setting": "[1]; n=3, Temp, 0C 72", "value": "12696 and 17884 and 19057"}, {"measurement": "Tagg shift, live-cell CETSA", "setting": "[1]; HeLa cells, 50 μM, 20 h", "value": 2, "unit": "°C"}, {"measurement": "ΔT", "setting": "[1]; Prodrug screen CETSA, live HeLa cells, 50 μM, 20 h, Mean n = 3", "value": 1.99, "unit": "oC"}, {"measurement": "ΔT, individual replicates n1-n3", "setting": "[1]; Prodrug screen CETSA, single replicates", "value": "0.38 oC and 4.34 oC and 1.24 oC"}, {"measurement": "ΔTm, shift in the melting temperature of SBC2", "setting": "SBC2", "value": 6, "unit": "°C"}]}]}
